Experimental data from patent US20210323977A1, “PYRROLIDINYL AMIDE COMPOUNDS FOR THE TREATMENT OF AUTOIMMUNE DISEASE” (Hoffmann-La Roche Inc., priority 2018, published 2021).

The compounds below were run against T1, human TLR8 (Homo sapiens, UniProt Q9NR97) (assay: HEK293-Blue-hTLR-8 cells assay). Conditions: HEK293-Blue-hTLR8 cells, SEAP reporter, R848 stimulation, 20 hrs.
T1 sequence (Q9NR97 27-1041): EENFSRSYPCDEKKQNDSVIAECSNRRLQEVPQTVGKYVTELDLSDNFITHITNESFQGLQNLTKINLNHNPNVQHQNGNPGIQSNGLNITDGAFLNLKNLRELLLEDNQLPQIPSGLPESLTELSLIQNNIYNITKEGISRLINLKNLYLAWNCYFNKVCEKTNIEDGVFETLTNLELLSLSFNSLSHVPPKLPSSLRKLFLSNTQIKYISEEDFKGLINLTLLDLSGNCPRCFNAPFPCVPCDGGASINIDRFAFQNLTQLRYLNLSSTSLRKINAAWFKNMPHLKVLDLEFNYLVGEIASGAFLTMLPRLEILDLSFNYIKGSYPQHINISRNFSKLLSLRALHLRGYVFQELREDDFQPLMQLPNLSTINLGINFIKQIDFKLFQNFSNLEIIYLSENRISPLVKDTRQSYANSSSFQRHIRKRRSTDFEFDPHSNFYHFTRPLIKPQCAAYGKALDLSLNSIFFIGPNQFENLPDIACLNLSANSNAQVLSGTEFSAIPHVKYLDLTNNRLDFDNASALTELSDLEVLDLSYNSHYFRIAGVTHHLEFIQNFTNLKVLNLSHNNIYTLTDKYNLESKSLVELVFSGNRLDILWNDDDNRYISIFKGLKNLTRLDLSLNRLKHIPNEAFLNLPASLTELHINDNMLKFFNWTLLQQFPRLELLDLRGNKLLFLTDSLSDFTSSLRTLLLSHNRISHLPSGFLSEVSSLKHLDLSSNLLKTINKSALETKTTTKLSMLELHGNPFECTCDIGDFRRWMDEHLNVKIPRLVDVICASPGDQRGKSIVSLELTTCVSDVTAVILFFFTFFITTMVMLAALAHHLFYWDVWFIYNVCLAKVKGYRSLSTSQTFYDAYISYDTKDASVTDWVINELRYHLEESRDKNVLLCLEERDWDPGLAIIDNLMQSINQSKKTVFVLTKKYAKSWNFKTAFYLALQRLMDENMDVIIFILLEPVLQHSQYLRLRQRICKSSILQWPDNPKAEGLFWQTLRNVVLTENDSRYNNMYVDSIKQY
Assay type: cell-based
Description: HEK293-Blue-hTLR-8 Cells Assay:
A stable HEK293-Blue-hTLR-8 cell line was purchased from InvivoGen (Cat. #: hkb-htlr8, San Diego, Calif., USA). These cells were originally designed for studying the stimulation of human TLR8 by monitoring the activation of NF-κB. A SEAP (secreted embryonic alkaline phosphatase) reporter gene was placed under the control of the IFN-β minimal promoter fused to five NF-κB and AP-1-binding sites. The SEAP was induced by activating NF-κB and AP-1 via stimulating HEK-Blue hTLR8 cells with TLR8 ligands. Therefore the reporter expression was declined by TLR8 antagonist under the stimulation of a ligand, such as R848, for incubation of 20 hrs. The cell culture supernatant SEAP reporter activity was determined using QUANTI-Blue™ kit (Cat. #: rep-qb1, Invivogen, San Diego, Ca, USA) at a wavelength of 640 nm, a detection medium that turns purple or blue in the presence of alkaline phosphatase.
HEK293-Blue-hTLR8 cells were incubated at a density of 250,000-450,000 cells/mL in a volume of 170 μL in a 96-well plate in Dulbecco's Modified Eagle's medium (DMEM) containing 4.5 g/L glucose, 50 U/mL penicillin, […], […], 2 mM L-glutamine, 10% (v/v) heat-inactivated fetal bovine serum with addition of 20 μL test compound in a serial dilution in the presence of final DMSO at 1% and 10 sL of 60 uM R848 in above DMEM, perform incubation under 37° C. in a CO2 incubator for 20 hrs. Then 20 μL of the supernatant from each well was incubated with 180 sL Quanti-blue substrate solution at 37° C. for 2 hrs and the absorbance was read at 620˜655 nm using a spectrophotometer. The signalling pathway that TLR8 activation leads to downstream NF-κB activation has been widely accepted, and therefore similar reporter assay was modified for evaluating TLR8 antagonist.
`N#Cc1ccc(N2C[C@@H](C(F)(F)F)[C@H](C(=O)N[C@H]3CNC[C@H]3F)C2)c2cccnc12` [Example 47, Trans-1-(8-cyano-5-quinolyl)-N-[(3S,4R)-4-fluoropyrrolidin-3-yl]-4-(trifluoromethyl)pyrrolidine-3-carboxamide] showed an IC50 of 404 nM. In the case of `C[C@H]1CN(c2ccc(Cl)c3ncccc23)C[C@@H]1C(=O)NC1CCN(C)CC1` [Example 50, (3R,4R)-1-(8-chloro-5-quinolyl)-4-methyl-N-(1-methyl-4-piperidyl)pyrrolidine-3-carboxamide], the IC50 is reported as 147 nM. Compound `CN1CCCC(CNC(=O)C2CN(c3ccc(C#N)c4ncccc34)CC23CC3)C1` (centres unmarked) [Example 51, 5-(8-Cyano-5-quinolyl)-N-[(1-methyl-3-piperidyl)methyl]-5-azaspiro[2.4]heptane-7-carboxamide] has an IC50 of 398 nM. In the case of `C[C@@H]1CN(c2ccc(C#N)c3ncccc23)C[C@H]1C(=O)N[C@H]1CNC[C@H]1F` [Example 56, Trans-1-(8-cyano-5-quinolyl)-N-[(3S,4R)-4-fluoropyrrolidin-3-yl]-4-methyl-pyrrolidine-3-carboxamide], the IC50 is reported as 373 nM. In the case of `C[C@H]1CN(c2ccc(C#N)c3nccnc23)C[C@@H]1C(=O)NC1CCN(C2CCNCC2)CC1` [Example 60, (3R,4R)-1-(8-cyanoquinoxalin-5-yl)-4-methyl-N-[1-(4-piperidyl)-4-piperidyl]pyrrolidine-3-carboxamide], the IC50 is reported as 48 nM.
